Measured values published in publication PMC7815786, “Antimicrobial effects of syndiotactic polypeptides” (Scientific Reports, 2021).
≈ marks a conversion by molar mass, not a printed value. Where a SMILES comes first, the peptide text is derived from it. [ ]: non-standard residue; d: D form.

How the values were obtained:
[1] = system: bacterial species tested (not specified); type: cell-based; details: wet lab experiments, bacterial species not given
Method: (§1) The antibacterial activity was performed using micro-dilution method as per Clinical and Laboratory Standards Institute (CLSI). Gentamicin resistant MRSA (ATCC 33592), Mycobacterium smegmatis (ATCC607) were procured from ATCC, Escherichia coli MG1655 has been sourced fromChaudhary laboratory, BSBE, IIT Guwahati. The clinical isolates was provided by Dr. Chimanjita Phukan (Guwahati Medical College Hospital, Bhangagarh, Guwahati, Assam). The media broth was procured from Himedia Laboratories. Overnight culture of Gentamicin resistant MRSA (ATCC 33592), Escherichia coli MG1655, clinical isolates [(S. aureus (drug resistant) and E. coli (multidrug resistant) supplementary table 2] were diluted to 10^6 CFU/mL in Nutrient Broth (NB). 100 µL of broth containing 50 µL of bacterial suspension and test peptides at various concentrations were incubated for 12 to 16 h at 37 °C[33]. Similarly, Mycobacterium smegmatis (ATCC607) was diluted to 10^6 CFU/mL in M7H9 media. 50 µL of bacterial suspension was treated with 50 µL peptides at various concentrations. The peptide bacterial suspension was incubated for 72 h at 37 °C. The antimicrobial potencies of the peptides were evaluated at 600 nm by a comparative assessment with untreated bacterial suspension (negative control). The Minimal Inhibitory Concentration (MIC) was reported at the lowest concentration, where no growth was observed, as per standard protocols. The serum sensitivity experiment was similar to antibacterial activity. In this experiment, 50% serum containing media was used, instead of media alone. The experiment with human serum was performed as per IHEC (Institute Human Ethics Committee) guidelines, at IIT Guwahati hospital, from healthy adult donors. All the protocols were approved by the IHEC, and performed, with the informed consent and written approval from the subjects.
Several modes of action of AMP’s have been proposed, and the contentious issue primarily is whether the peptide is targeting the membrane, followed by its disruption or it penetrates the membrane invading cytoplasm, affecting cellular metabolism. […]

[2] = system: Gentamicin resistant MRSA (ATCC 33592); type: cell-based, Staphylococcus aureus
Method: as §1

[3] = system: Mycobacterium smegmatis (ATCC607); type: cell-based; details: ATCC607, 72 h
Method: as §1

Escherichia coli MG1655 = type: cell-based
Method: as §1

[4] = system: clinical isolate of drug resistant Staphylococcus aureus (sample 28401); type: cell-based; details: clinical isolate of drug resistant (sample 28401)
Method: as §1
(§2) Primary screening of the antibacterial activity of the peptides was performed against clinical isolates obtained from a tertiary referral hospital (Details in supplementary information, section 3). Resistant Staphylococcus aureus (Gram-positive) and E.coli (Gram negative) are the two clinical bacterial strains assayed in this study. The results of the antimicrobial assay are summarized in Fig. 4 and supplementary Table 2.
(§3) Supplementary Table 2. The in-vitro antimicrobial activity of designed peptides against clinical isolates of multi-drug resistant Staphylococcus aureus and Escherichia coli. The concentration is expressed in µM.

[5] = system: clinical isolate of multi-drug resistant Escherichia coli (sample 28162); type: cell-based; details: clinical isolate of multi-drug resistant (sample 28162)
Method: as §1, §2, §3

MIC S. aureus clinical isolate [4]	MIC E.coli clinical isolate [5]	Structure (SMILES)	MIC values (summary in discussion) [1]	MIC Gentamicin resistant MRSA, Medium [2]	MIC M.smegmatis, Medium [3]	MIC E. coli, Medium (Escherichia coli MG1655)
–	–	CC(C)C[C@@H](NC(=O)[C@H](Cc1c[nH]c2ccccc12)NC(=O)[C@@H](CC(C)C)NC(=O)[C@@H](N)Cc1c[nH]c2ccccc12)C(=O)N[C@@H](Cc1c[nH]c2ccccc12)C(=O)N[C@H](CC(C)C)C(=O)N[C@@H](Cc1c[nH]c2ccccc12)C(=O)N[C@@H](C(=O)N[C@@H](CCCCN)C(=O)N[C@H](CCCCN)C(=O)N[C@@H](C)C(=O)N[C@H](CCCCN)C(=O)N[C@@H](C)C(=O)N[C@H](CCCCN)C(=O)N[C@@H](CCCCN)C(N)=O)C(C)C [AS08] (H-W[dL]W[dL]W[dL]W[dV]K[dK]A[dK]A[dK]K-NH2)	1 to 10 µM	6.25 µM (≈ 12.4 µg/mL)	6.25 µM (≈ 12.4 µg/mL)	6.25 µM (≈ 12.4 µg/mL)
–	–	CC(C)[C@H](NC(=O)[C@H](NC(=O)[C@H](CCCCN)NC(=O)[C@@H](CCCCN)NC(=O)[C@H](CCCCN)NC(=O)[C@H](NC(=O)[C@@H](NC(=O)[C@H](NC(=O)[C@H](CCCCN)NC(=O)[C@@H](CCCCN)NC(=O)[C@@H](N)CCCCN)C(C)C)C(C)C)C(C)C)C(C)C)C(=O)N[C@H](Cc1c[nH]c2ccccc12)C(=O)N[C@@H](CCCCN)C(N)=O [AS06] (H-K[dK]K[dV]V[dV]K[dK]K[dV]V[dW]K-NH2)	~50 µM (≈ 79.8 µg/mL)	50 µM (≈ 79.8 µg/mL)	25 µM (≈ 39.9 µg/mL)	25 µM (≈ 39.9 µg/mL)
–	–	CC(C)[C@H](NC(=O)[C@@H](Cc1c[nH]c2ccccc12)NC(=O)[C@H](Cc1c[nH]c2ccccc12)NC(=O)[C@@H](CCCCN)NC(=O)[C@H](CCCNC(=N)N)NC(=O)[C@@H](CCCCN)NC(=O)[C@@H](NC(=O)[C@H](NC(=O)[C@H](Cc1c[nH]c2ccccc12)NC(=O)[C@@H](Cc1c[nH]c2ccccc12)NC(=O)[C@H](CCCNC(=N)N)NC(=O)[C@@H](CCCCN)NC(=O)[C@@H](N)CCCNC(=N)N)C(C)C)C(C)C)C(N)=O [AS01] (H-R[dK]R[dW]W[dV]V[dK]R[dK]W[dW]V-NH2)	–	6.25 µM (≈ 12 µg/mL)	6.25 µM (≈ 12 µg/mL)	3.13 µM (≈ 5.99 µg/mL)
50 µM (≈ 95.8 µg/mL)	25 µM (≈ 47.9 µg/mL)	CC(C)[C@@H](NC(=O)[C@H](Cc1c[nH]c2ccccc12)NC(=O)[C@H](NC(=O)[C@H](CCCCN)NC(=O)[C@@H](CCCCN)NC(=O)[C@H](CCCCN)NC(=O)[C@@H](Cc1c[nH]c2ccccc12)NC(=O)[C@@H](N)Cc1c[nH]c2ccccc12)C(C)C)C(=O)N[C@@H](CCCCN)C(=O)N[C@H](CCCCN)C(=O)N[C@@H](CCCCN)C(=O)N[C@H](Cc1c[nH]c2ccccc12)C(=O)N[C@@H](Cc1c[nH]c2ccccc12)C(N)=O [AS04] (H-W[dW]K[dK]K[dV]W[dV]K[dK]K[dW]W-NH2)	–	1.6 µM (≈ 3.06 µg/mL)	6.25 µM (≈ 12 µg/mL)	3.13 µM (≈ 6 µg/mL)
50 µM (≈ 97.7 µg/mL)	50 µM (≈ 97.7 µg/mL)	CC(C)C[C@H](NC(=O)[C@@H](Cc1c[nH]c2ccccc12)NC(=O)[C@H](CC(C)C)NC(=O)[C@@H](Cc1c[nH]c2ccccc12)NC(=O)[C@H](CCCNC(=N)N)NC(=O)[C@@H](CCCCN)NC(=O)[C@@H](N)CCCNC(=N)N)C(=O)N[C@H](CCCCN)C(=O)N[C@@H](CCCNC(=N)N)C(=O)N[C@H](CCCCN)C(=O)N[C@@H](Cc1c[nH]c2ccccc12)C(=O)N[C@H](CC(C)C)C(=O)N[C@@H](Cc1c[nH]c2ccccc12)C(N)=O [AS02] (H-R[dK]R[dW]L[dW]L[dK]R[dK]W[dL]W-NH2)	–	3.13 µM (≈ 6.12 µg/mL)	3.13 µM (≈ 6.12 µg/mL)	6.25 µM (≈ 12.2 µg/mL)

Structure (SMILES)	MIC S. aureus clinical isolate [4]	MIC E.coli clinical isolate [5]	MIC values (summary in discussion) [1]	MIC Gentamicin resistant MRSA, Medium [2]	MIC M.smegmatis, Medium [3]	MIC E. coli, Medium (Escherichia coli MG1655)
CC(C)[C@H](NC(=O)[C@H](NC(=O)[C@H](Cc1c[nH]c2ccccc12)NC(=O)[C@@H](Cc1c[nH]c2ccccc12)NC(=O)[C@H](CCCCN)NC(=O)[C@@H](CCCCN)NC(=O)[C@H](CCCCN)NC(=O)[C@H](NC(=O)[C@H](Cc1c[nH]c2ccccc12)NC(=O)[C@@H](Cc1c[nH]c2ccccc12)NC(=O)[C@H](CCCCN)NC(=O)[C@@H](CCCCN)NC(=O)[C@@H](N)CCCCN)C(C)C)C(C)C)C(N)=O [AS03] (H-K[dK]K[dW]W[dV]K[dK]K[dW]W[dV]V-NH2)	25 µM (≈ 45.7 µg/mL)	25 µM (≈ 45.7 µg/mL)	1 to 10 µM	3.13 µM (≈ 5.72 µg/mL)	6.25 µM (≈ 11.4 µg/mL)	6.25 µM (≈ 11.4 µg/mL)
